Source: ChEMBL document CHEMBL5726293, “Substituted pyrimidine compounds” (2019)
pIC50: −log10 of the molar value.

Molecular target: 3',5'-cyclic-AMP phosphodiesterase 4B (Homo sapiens, UniProt Q07343)
Experiment: cAMP HTRF Assay to Determine the Activity of hPDE4B1: The inhibiting effect of the compounds on the enzyme activity of human PDE4B1 was measured by the quantification of 5′-adenosine monophosphate (5′-AMP), which is formed from 3′,5′-cyclic adenosine monophosphate (cAMP). Human recombinant enzyme, expressed in Sf9 cells, and the HTRF (homogeneous time-resolved fluorescence) detection method were used in the assay.The test compound or water (control) was mixed with the human recombinant PDE4B1 enzyme (4.8 U) in a buffer consisting of 44.4 mM tris-HCl, 5.28 mM MgCl2, 2.64 mM DTT and 0.044% Tween 20 (pH 7.8). After adding the cAMP enzyme substrate (final concentration 40 nM), the mixture was incubated for 30 minutes at room temperature. Then a fluorescence acceptor (Dye2 marked with cAMP), a fluorescence donor (anti-cAMP antibody marked with a europium cryptate) and the non-specific phosphodiesterase inhibitor IBMX (3-isobutyl-1-methylxanthine; final concentration 1 mM) were added. After 60 min the fluorescence transfer, which correlates with the amount of remaining cAMP, was measured with a microplate reader (Rubystar, BMG) at λex=337 nm, λem=620 nm and λem=665 nm. The enzyme activity was calculated from the quotient formed from the measured signal at 665 nm and that at 620 nm. […]

3',5'-cyclic-AMP phosphodiesterase 4B, sequence (Q07343 whole entry): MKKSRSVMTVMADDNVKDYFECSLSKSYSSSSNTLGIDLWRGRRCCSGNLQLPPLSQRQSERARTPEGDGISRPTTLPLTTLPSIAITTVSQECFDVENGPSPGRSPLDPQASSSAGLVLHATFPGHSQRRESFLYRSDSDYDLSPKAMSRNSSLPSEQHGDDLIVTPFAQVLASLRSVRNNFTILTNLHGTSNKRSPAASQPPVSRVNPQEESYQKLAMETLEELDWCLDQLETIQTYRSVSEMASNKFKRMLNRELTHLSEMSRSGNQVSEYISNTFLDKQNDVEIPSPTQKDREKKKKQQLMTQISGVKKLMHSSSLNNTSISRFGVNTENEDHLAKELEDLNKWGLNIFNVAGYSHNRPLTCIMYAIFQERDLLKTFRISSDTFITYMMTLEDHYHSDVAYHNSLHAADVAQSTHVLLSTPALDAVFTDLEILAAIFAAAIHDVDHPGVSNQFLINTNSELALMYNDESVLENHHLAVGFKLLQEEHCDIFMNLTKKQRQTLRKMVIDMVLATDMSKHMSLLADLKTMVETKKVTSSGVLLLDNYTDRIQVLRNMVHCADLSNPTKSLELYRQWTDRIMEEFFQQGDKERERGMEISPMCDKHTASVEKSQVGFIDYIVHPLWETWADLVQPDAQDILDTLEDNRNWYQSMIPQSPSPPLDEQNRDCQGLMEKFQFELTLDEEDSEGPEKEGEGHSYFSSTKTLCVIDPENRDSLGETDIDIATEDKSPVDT

pIC50	Compound
> 7.00	CNCCN(C)C(=O)c1ccc2c(c1)N(c1ncc(-c3ccccc3F)cn1)CC21CC1
> 7.00	CCc1csc(-c2cnc(N3CC4(CC4)c4ccc(C(=O)N(C)CCO)cc43)nc2)n1
